From paper PMC3509056 (The FASEB Journal, 2012)
Changes are numbered by the printed parent chain.

Legend:
hFFA2 [1] = target: T1, hFFA2 (Homo sapiens, UniProt O15552); assay: beta-arrestin-2 BRET recruitment; format: cell-based
T1 sequence (O15552 1-330): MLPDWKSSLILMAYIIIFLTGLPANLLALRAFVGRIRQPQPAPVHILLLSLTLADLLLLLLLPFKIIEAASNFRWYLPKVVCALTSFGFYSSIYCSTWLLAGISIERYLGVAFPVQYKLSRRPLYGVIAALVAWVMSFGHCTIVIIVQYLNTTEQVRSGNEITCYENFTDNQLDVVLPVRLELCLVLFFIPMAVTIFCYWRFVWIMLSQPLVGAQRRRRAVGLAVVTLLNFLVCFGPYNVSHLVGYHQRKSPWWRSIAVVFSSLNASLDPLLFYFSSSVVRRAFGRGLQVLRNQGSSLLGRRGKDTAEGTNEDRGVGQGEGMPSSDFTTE

hFFA3 = target: T2, hFFA3 (Homo sapiens, UniProt O14843); assay: […]GTPγS incorporation, membranes; format: biochemical
T2 sequence (O14843 1-346): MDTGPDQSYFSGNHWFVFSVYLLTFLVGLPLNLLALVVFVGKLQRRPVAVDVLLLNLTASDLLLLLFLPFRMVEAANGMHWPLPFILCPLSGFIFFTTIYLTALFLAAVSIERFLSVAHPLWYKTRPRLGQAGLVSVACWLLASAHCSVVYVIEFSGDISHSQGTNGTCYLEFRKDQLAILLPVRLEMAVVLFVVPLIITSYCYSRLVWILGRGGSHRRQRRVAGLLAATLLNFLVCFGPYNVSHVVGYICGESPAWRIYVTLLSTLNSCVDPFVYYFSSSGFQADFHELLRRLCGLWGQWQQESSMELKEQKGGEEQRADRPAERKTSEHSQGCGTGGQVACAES

bFFA3 = target: T3, bFFA3 (Bos taurus, UniProt A0ACM8QIV1); assay: […]GTPγS incorporation, membranes; format: biochemical
T3 sequence (A0ACM8QIV1 1-326): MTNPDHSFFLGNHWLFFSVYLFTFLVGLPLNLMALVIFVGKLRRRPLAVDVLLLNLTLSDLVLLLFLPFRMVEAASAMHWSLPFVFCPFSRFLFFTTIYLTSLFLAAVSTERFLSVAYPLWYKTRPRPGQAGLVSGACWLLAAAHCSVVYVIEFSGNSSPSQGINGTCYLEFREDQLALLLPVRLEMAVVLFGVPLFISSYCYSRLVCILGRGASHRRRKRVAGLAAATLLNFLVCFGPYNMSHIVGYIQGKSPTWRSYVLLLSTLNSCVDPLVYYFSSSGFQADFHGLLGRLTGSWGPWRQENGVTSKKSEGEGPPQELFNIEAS

bFFA2 = target: T4, bFFA2 (Bos taurus, UniProt A0ACM8QIU6); assay: beta-arrestin-2 BRET recruitment; format: cell-based
T4 sequence (A0ACM8QIU6 1-329): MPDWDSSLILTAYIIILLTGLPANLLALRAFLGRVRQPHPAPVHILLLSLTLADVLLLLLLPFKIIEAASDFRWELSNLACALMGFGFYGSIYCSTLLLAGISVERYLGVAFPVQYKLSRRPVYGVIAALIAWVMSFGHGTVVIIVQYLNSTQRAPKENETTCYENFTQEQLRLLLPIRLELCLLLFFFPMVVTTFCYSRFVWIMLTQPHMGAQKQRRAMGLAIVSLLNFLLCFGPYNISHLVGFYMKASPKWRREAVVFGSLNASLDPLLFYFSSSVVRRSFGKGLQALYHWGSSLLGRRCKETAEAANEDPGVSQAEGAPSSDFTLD

hFFA2 [2] = target: T5, hFFA2 (Homo sapiens, UniProt O15552, C141G); assay: beta-arrestin-2 BRET recruitment; format: cell-based
T5 sequence (O15552 1-330 C141G): T1 sequence (O15552 1-330) with C141G

hFFA2 [3] = target: T6, hFFA2 (Homo sapiens, UniProt O15552, C141G/H242Q); assay: […]GTPγS incorporation, membranes; format: biochemical
T6 sequence (O15552 1-330 C141G/H242Q): T1 sequence (O15552 1-330) with C141G, H242Q

Compound	EC50 (hFFA2 [1]) [µM]	EC50 (hFFA3) [µM]	EC50 (bFFA3) [µM]	EC50 (bFFA2) [µM]	EC50 (hFFA2 [2]) [µM]	EC50 (hFFA2 [3]) [µM]
O=CO [C1, formic acid]	2510	> 10000	> 10000	> 10000		
CCC(=O)O [C3, propionic acid]		200	155	347 ± 7.01		
CCCC(=O)O [C4, butyric acid]	1480	251	263	69.2		
CCCCC(=O)O [C5, valeric acid]	7080	36.3	123	42.7		
CCCCCC(=O)O [C6, caproic acid]	> 10000	204	126	20.9	24	
CCCCCCC(=O)O [C7, heptanoic acid]	> 10000	69.2	158	155	105	
CCCCCCCC(=O)O [C8, caprylic acid]	> 10000	> 10000	> 10000	617	1070	
CC/C=C/C(=O)O [compound 22, trans-2-pentenoic acid]				5.25	33.1	
CCC/C=C/C(=O)O [compound 23, trans-2-hexenoic acid]	> 10000			3.98	3.24	
C=CC=CC(=O)O [compound 24, 2,4-pentadienoic acid]				10	22.9	
O=C(O)C1=CCCC1 [compound 27, 1-cyclopentenecarboxylic acid]	> 10000			11	83.2	

The next lines start with the values.

EC50 (hFFA2 [1]) [µM]	EC50 (hFFA3) [µM]	EC50 (bFFA3) [µM]	EC50 (bFFA2) [µM]	EC50 (hFFA2 [2]) [µM]	EC50 (hFFA2 [3]) [µM]	Compound
1000	7590	4370	2040			CC(=O)O [C2, acetic acid]
> 10000	> 10000	> 10000	3390			CCCCCCCCC(=O)O [C9, pelargonic acid]
> 10000			4.27	4.57	3.47	C/C=C/C=C/C(=O)O [compound 25, 2,4-hexadienoic acid]
> 10000			12.9	257		CC(=CC(=O)O)C(F)(F)F [compound 26, 4,4,4-trifluoro-3-methyl-2-butenoic acid]
> 10000			174	389		O=C(O)/C=C/c1ccccc1 [compound 28, trans-cinnamic acid]
> 10000			60.3	158		O=C(O)C1=CCCCC1 [compound 29, 1-cyclohexene-1-carboxylic acid]
